In US7250400B2, “Peptides and derivatives thereof showing cell attachment, spreading and detachment activity” (Regen Biotech, Inc., priority 2002, dated 2007):
Entries after “also recorded” stand apart in the source; their conditions may differ.

What was measured:
Format in all cases: cell-based
HCE cells [1] = test: Effect of synthetic peptides on βig-h3-mediated HCE cell adhesion; conditions: 100 μM peptide; for cell detachment activity: HCE cell adhesion to βig-h3, FIG. 8a; for inhibition of HCE cell adhesion to βig-h3: preincubation 30 min, dishes coated with 10 μg/ml βig-h3, FIG. 8a
Description: (§1) The recombinant βig-h3 fas-1 domain proteins prepared above were assayed for cell attachment activity. First, the recombinant βig-h3 proteins were let to adhere to the bottoms of 96-well microculture plates (Falcon) by incubation at 37° C. for 1 hour and blocked with PBS containing 0.2% BSA. HCE cells were suspended in culture media at a density of 2×10^5 cells/ml. 0.1 ml of the cell suspension was added to each well of the plates coated with the recombinant proteins. Following incubation at 37° C. for 1 hour, unattached cells were removed by washing with PBS. Attached cells were incubated for 1 hour at 37° C. in 50 mM citrate buffer, pH 5.0, containing 3.75 mM p-nitrophenol-N-acetyl 1-β-D-glycosaminide as a hexosaminidase substrate and 0.25% Triton X-100, followed by the addition of 50 mM glycine buffer, pH 10.4, containing 5 mM EDTA to block the enzyme activity. A measurement was made of absorbance at 405 nm in a Multiskan MCC/340 microplate reader.
Effect of the peptides containing conserved sequences of fas-1 domains of βig-h3 on βig-h3-mediated cell adhesion was examined with HCE cells. Cells were preincubated for 30 min in media containing 100 μM of each of the four synthetic peptides or no peptides and transferred to plastic culture dishes coated with 10 μg/ml BSA or 10 μg/ml βig-h3. The attached cells were subjected to quantitative hexosaminidase analysis as in Example 1-2.

HCE cells [2] = test: Cell adhesion of HCE cells to surfaces coated with synthetic peptides; conditions: plates coated with peptide at 0-120 μM, HCE cells 37° C. 1 hour, FIG. 9a
Description: as §1
An experiment was carried out to determine whether each of the synthetic peptides is able to mediate cell adhesion. Well plates were coated with each peptide at concentrations of 0, 20, 40, 60, 80, 100 and 120 μM and then incubated with HCE cells at 37° C. for 1 hour. The attached cells were quantitatively analyzed with hexosaminidase as in Example 1-2.

HCE cells [3] = test: Effect of synthetic peptides on HCE cell adhesion to various extracellular matrix proteins; conditions: 100 μM peptide; for inhibition of cell adhesion to fibronectin: plates coated with fibronectin; for inhibition of cell adhesion to fibronectin / inhibition of cell adhesion to laminin / inhibition of cell adhesion to type I collagen / inhibition of cell adhesion to type II collagen / inhibition of cell adhesion to vitronectin: FIG. 10a; for inhibition of cell adhesion to laminin: plates coated with laminin; for inhibition of cell adhesion to type I collagen: plates coated with type I collagen; for inhibition of cell adhesion to type II collagen: plates coated with type II collagen; for inhibition of cell adhesion to vitronectin: plates coated with vitronectin; for inhibition of cell adhesion to βig-h3: plates coated with βig-h3, FIG. 10a
Description: as §1
To determine whether the inhibitory activity of synthetic peptides EPDIM (SEQ ID NO:3 and NKDIL (SEQ ID NO:2) against cell adhesion is specific to βig-h3, effects of the synthetic peptides on cell adhesion to various matrix proteins were examined. HCE cells were preincubated in media added with 100 μM of the synthetic peptide EPDIM (SEQ ID NO:3) or NKDIL (SEQ ID NO:2) or none of them and then applied to plates coated with various matrix proteins, including βig-h3, fibronectin, laminin, vitronectin, type I and type II collagen. After 1 hour of incubation, the attached cells were quantitatively analyzed with hexosaminidase as in Example 1-2.

α3β1 integrin = test: Function-blocking anti-integrin antibodies on HCE cell adhesion to plates coated with EPDIM or NKDIL; conditions: plates coated with 100 μM peptide, antibodies 5 μg/ml, FIG. 9b
Description: Function-blocking experiments using monoclonal antibodies against various integrin subunits were carried out to examine whether α3β1 integrin, known as a surface receptor of βig-h3, would be involved in the cell adhesion mediated by the synthetic peptides EPDIM (SEQ ID NO:3) and NKDIL (SEQ ID NO:2). HCE was preincubated at 37° C. for 30 mm in the presence of each of the monoclonal antibodies (5 μg/ml) against different types of integrins. The preincubated cells were transferred onto plates precoated with 100 μM EPDIM (SEQ ID NO:3) or 100 μM NKDIL (SEQ ID NO:2) and then incubated further at 37° C. for 1 hour, followed by the quantitative analysis with hexosaminidase substrate as in Example 1-2.

HCE cells [4] = test: Inhibition of HCE cell adhesion to βig-h3, fibronectin and laminin at various concentrations of EPDIM; conditions: EPDIM 0-1,200 μM, FIG. 10b
Description: as §1
HCE cells were incubated in media containing the synthetic peptide EPDIM (SEQ ID NO:3) at concentrations of 0, 200, 400, 600, 800, 1,000 and 1,200 μM and applied to plates coated with βig-h3, fibronectin and laminin. Following incubation for 1 hour, the attached cells were quantitatively analyzed with hexosaminidase as in Example 1-2.

HCE cells [5] = test: Cell attachment activity of recombinant βig-h3 fas-1 domain proteins coated on plates (hexosaminidase assay); conditions: HCE cells on plates coated with the recombinant protein, 37° C. 1 hour, FIG. 2
Description: as §1

HCE cells [6] = test: Cell attachment activity of substitution mutants of the 4th fas-1 domain of βig-h3; conditions: HCE cells on plates coated with the mutant protein, 37° C. 1 hour, FIG. 6
Description: as §1
Examination was made of the cell attachment activity of the mutated proteins wherein the Pro616, Asp617 and Ile618 of βigh3 D-IV were substituted, in combination, with Ser, Ala and Ser, respectively, that is, βigh3 D-IV-sDI, βigh3 D-IV-Pal, βigh3 D-IV-PDs, and βigh3 D-IV-sas. To this end, HCE cells were incubated at 37° C. for 1 hour in well plates coated with the mutant proteins, followed by subjecting the attached cells to the hexosaminidase substrate as in Example 1-2.

Sequence of α3β1 integrin (P26006 33-872 limits assumed): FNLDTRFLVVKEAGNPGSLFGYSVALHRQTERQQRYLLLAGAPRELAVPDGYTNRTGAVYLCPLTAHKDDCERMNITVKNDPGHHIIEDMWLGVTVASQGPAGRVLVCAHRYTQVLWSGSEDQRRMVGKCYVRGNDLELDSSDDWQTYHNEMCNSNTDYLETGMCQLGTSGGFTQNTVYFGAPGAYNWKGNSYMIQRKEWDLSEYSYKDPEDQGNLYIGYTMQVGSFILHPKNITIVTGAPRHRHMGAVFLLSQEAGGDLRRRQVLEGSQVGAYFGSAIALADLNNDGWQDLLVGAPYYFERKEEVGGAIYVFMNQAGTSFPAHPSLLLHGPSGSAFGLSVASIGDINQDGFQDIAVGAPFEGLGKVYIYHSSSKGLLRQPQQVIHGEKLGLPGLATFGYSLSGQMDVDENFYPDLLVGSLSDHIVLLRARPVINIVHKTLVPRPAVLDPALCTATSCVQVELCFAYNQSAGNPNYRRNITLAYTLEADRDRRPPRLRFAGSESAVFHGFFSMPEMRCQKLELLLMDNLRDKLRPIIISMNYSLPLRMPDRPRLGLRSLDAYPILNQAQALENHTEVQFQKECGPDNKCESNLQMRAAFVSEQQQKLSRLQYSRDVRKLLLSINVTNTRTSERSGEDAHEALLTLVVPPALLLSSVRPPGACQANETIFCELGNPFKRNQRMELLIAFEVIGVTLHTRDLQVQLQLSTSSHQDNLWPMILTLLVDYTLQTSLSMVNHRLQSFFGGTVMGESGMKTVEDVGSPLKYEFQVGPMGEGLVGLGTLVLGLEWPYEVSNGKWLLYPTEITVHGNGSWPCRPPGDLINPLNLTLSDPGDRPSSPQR
Sequence of α3β1 integrin (P26006 876-1051 limits assumed): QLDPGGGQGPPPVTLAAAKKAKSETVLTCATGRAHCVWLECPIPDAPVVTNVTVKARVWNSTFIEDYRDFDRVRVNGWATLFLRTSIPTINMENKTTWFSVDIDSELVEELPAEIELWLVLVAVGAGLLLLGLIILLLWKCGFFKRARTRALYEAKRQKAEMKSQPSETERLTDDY
Sequence of α3β1 integrin (P05556 21-798, further chain): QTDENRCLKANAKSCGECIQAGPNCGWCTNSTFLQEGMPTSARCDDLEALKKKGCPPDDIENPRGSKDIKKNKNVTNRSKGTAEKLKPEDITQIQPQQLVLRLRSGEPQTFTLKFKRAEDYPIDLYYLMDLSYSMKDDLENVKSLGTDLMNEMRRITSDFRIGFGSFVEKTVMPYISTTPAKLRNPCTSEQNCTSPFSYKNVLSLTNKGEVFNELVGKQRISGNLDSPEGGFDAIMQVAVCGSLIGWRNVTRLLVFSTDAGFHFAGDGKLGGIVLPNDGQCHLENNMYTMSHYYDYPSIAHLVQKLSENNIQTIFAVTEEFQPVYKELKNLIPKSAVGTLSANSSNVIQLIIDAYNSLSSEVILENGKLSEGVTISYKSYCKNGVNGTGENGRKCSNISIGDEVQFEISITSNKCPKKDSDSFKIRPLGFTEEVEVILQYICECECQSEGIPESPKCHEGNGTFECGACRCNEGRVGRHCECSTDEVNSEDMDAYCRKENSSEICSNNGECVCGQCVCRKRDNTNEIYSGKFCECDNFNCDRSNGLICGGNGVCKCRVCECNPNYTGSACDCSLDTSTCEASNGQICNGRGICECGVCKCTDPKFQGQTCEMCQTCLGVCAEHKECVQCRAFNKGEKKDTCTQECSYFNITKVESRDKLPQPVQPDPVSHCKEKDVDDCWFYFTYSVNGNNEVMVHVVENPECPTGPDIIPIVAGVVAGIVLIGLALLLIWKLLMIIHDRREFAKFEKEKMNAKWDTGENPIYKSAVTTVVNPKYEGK

## KADHH [synthetic peptide, a.a]
HCE cells [1]
  cell detachment activity: relatively very low cell detachment effects
  inhibition of HCE cell adhesion to βig-h3: weak suppression of cell adhesion; also recorded: weakly inhibited
HCE cells [2]
  ability to mediate cell adhesion: low in activity compared to NKDIL

## NKDIL [synthetic peptide, a.a]
HCE cells [1]
  cell detachment activity: very excellent cell detachment effect; also recorded: excellent cell detachment activity
  inhibition of HCE cell adhesion to βig-h3: significant suppression of the cell attachment activity; also recorded: significantly blocked
HCE cells [2]
  ability to mediate cell adhesion: capable of mediating cell adhesion in dose-dependent manners; also recorded: mediate cell adhesion in dose-dependent manners
HCE cells [3]
  inhibition of cell adhesion to fibronectin: weakly inhibited
  inhibition of cell adhesion to laminin: efficiently blocked
  inhibition of cell adhesion to type I collagen: did not affect
  inhibition of cell adhesion to type II collagen: did not affect
  inhibition of cell adhesion to vitronectin: did not affect
  inhibition of cell adhesion to βig-h3: efficiently blocked
α3β1 integrin
  α3β1 integrin as receptor in peptide-mediated cell adhesion: revealed to act as a receptor

## DEMPI [reference compound]
HCE cells [1]
  cell detachment activity: failed to show; also recorded: low cell detachment activity
  inhibition of HCE cell adhesion to βig-h3: did not affect cell adhesion
HCE cells [2]
  ability to mediate cell adhesion: not active in cell adhesion

## EPDIM [synthetic peptide, a.a]
HCE cells [1]
  cell detachment activity: very excellent cell detachment effect; also recorded: excellent cell detachment activity
  inhibition of HCE cell adhesion to βig-h3: significant suppression of the cell attachment activity; also recorded: significantly blocked
HCE cells [2]
  ability to mediate cell adhesion: capable of mediating cell adhesion in dose-dependent manners; also recorded: mediate cell adhesion in dose-dependent manners
HCE cells [3]
  inhibition of cell adhesion to fibronectin: weakly inhibited
  inhibition of cell adhesion to laminin: efficiently blocked
  inhibition of cell adhesion to type I collagen: did not affect
  inhibition of cell adhesion to type II collagen: did not affect
  inhibition of cell adhesion to vitronectin: did not affect
  inhibition of cell adhesion to βig-h3: efficiently blocked
HCE cells [4]
  inhibitory effect on cell adhesion to fibronectin: dose-dependent
  inhibitory effect on cell adhesion to laminin: dose-dependent
  inhibitory effect on cell adhesion to βig-h3: dose-dependent
α3β1 integrin
  α3β1 integrin as receptor in peptide-mediated cell adhesion: revealed to act as a receptor

B1: βigh3-D-II: recombinant His-tagged 2nd fas-1 domain of human βig-h3, amino acid residues 242 to 372 (protein)
chain: NIQQIIEIEDTFETLRAAVAASGLNTMLEGNGQYTLLAPTNEAFEKIPSETLNRILGDPEALRDLLNNHILKSAMCAEAIVAGLSVETLEGTTLEVGCSGDMLTINGKAIISNKDILATNGVIHYIDELLIHHHHHH
HCE cells [5]
  cell attachment and spreading activity: comparable to the activity of wild type βig-h3

B2: βigh3-D-IV: recombinant His-tagged 4th fas-1 domain of human βig-h3, amino acid residues 501 to 632 (protein)
chain: MGTVMDVLKGDNRFSMLVAAIQSAGLTETLNREGVYTVFAPTNEAFRALPPRERSRLLGDAKELANILKYHIGDEILVSGGIGALVRLKSLQGDKLEVSLKNNVVSVNKEPVAEPDIMATNGVVHVITNVLHHHHHH
HCE cells [5]
  cell attachment and spreading activity: comparable to the activity of wild type βig-h3

B3: βigh3-D-I: recombinant His-tagged 1st fas-1 domain of human βig-h3, amino acid residues 133 to 236 (protein)
chain: EGPGSFTIFAPSNEAWASLPAEVLDSLVSNVNIELLNALRYHMVGRRVLTDELKHGMTLTSMYQNSNIQIHHYPNGIVTVNCARLLKADHHATNGVVHLIDKVIHHHHHH
HCE cells [5]
  cell attachment and spreading activity: weak activity

B4: βigh3-D-III: recombinant His-tagged 3rd fas-1 domain of human βig-h3, amino acid residues 373 to 501 (protein)
chain: PDSAKTLFELAAESDVSTAIDLFRQAGLGNHLSGSERLTLLAPLNSVFKDGTPPIDAHTRNLLRNHIIKDQLASKYLYHGQTLETLGGKKLRVFVYRNSLCIENSCIAAHDKRGRYGTLFTMDRVLTPPHHHHHH
HCE cells [5]
  cell attachment and spreading activity: almost no activity

B5: βigh3 D-IV-Pal: βigh3 D-IV mutant having Ala instead of Asp617 (protein)
chain: MGTVMDVLKGDNRFSMLVAAIQSAGLTETLNREGVYTVFAPTNEAFRALPPRERSRLLGDAKELANILKYHIGDEILVSGGIGALVRLKSLQGDKLEVSLKNNVVSVNKEPVAEPAIMATNGVVHVITNVLHHHHHH
HCE cells [6]
  cell attachment activity: significantly blocked cell adhesion

B6: βigh3 D-IV-PDs: βigh3 D-IV mutant having Ser instead of Ile618 (protein)
chain: MGTVMDVLKGDNRFSMLVAAIQSAGLTETLNREGVYTVFAPTNEAFRALPPRERSRLLGDAKELANILKYHIGDEILVSGGIGALVRLKSLQGDKLEVSLKNNVVSVNKEPVAEPDSMATNGVVHVITNVLHHHHHH
HCE cells [6]
  cell attachment activity: significantly blocked cell adhesion

B7: βigh3 D-IV-sDI: βigh3 D-IV mutant having Ser instead of Pro616 (protein)
chain: MGTVMDVLKGDNRFSMLVAAIQSAGLTETLNREGVYTVFAPTNEAFRALPPRERSRLLGDAKELANILKYHIGDEILVSGGIGALVRLKSLQGDKLEVSLKNNVVSVNKEPVAESDIMATNGVVHVITNVLHHHHHH
HCE cells [6]
  cell attachment activity: comparable to that of the wild type control

B8: βigh3 DIV-sas: βigh3 D-IV mutant in which the three amino acids Pro616, Asp617, Ile618 were mutated to Ser, Ala, Ser (protein)
chain: MGTVMDVLKGDNRFSMLVAAIQSAGLTETLNREGVYTVFAPTNEAFRALPPRERSRLLGDAKELANILKYHIGDEILVSGGIGALVRLKSLQGDKLEVSLKNNVVSVNKEPVAESASMATNGVVHVITNVLHHHHHH
HCE cells [6]
  cell attachment activity: far lower than the control
